Experimental data: article PMC12373846, “Hemoglobin as a pseudoperoxidase and drug target for oxidative stress-related diseases” (Signal Transduction and Targeted Therapy, 2025)

How the values were obtained:
[1] = ROS-Glo H2O2 assay without HRP or Hb; type: biochemical; details: ROS-Glo assay lacking HRP/Hb
Method: (§1) Hb (Sigma‒Aldrich, H7379), H2O2 (Sigma‒Aldrich, H1009), and Amplex Red reagents (Invitrogen, A12222) were obtained for the study. A 4 μM H2O2 solution was prepared in 50 mM sodium phosphate buffer (pH 7.2). Then, 49 μl of this mixture was mixed with 1 μl of the test compound in DMSO or distilled water. The mixture was combined with an assay mixture of Amplex Red reagent (20 mM stock to 0.1 mM) and HRP (200 U/ml stock to 0.2 U/ml) and added to the wells at 50 μl/well. After a 60-min incubation at 37 °C, resorufin production was quantified via a microplate fluorescence reader (SpectraMax iD5, Molecular Devices) at ex/em = 535/580 nm. The H2O2-decomposing activity was estimated via the following equation: (sample fluorescence-blank fluorescence)/(control […]-blank fluorescence) × 100. For the ROS-Glo assay, the H2O2 substrate solution and ROS-Glo detection solution were prepared according to the manufacturer’s instructions. 10 μM H2O2 and drugs were prepared as in the Amplex Red assay, with HRP, Hb, CAT, or GPx added as needed. The mixture was added to the wells at 100 μl/well and incubated for 60 min at 37 °C. H2O2 substrate solution was added, and the mixture was incubated at room temperature for 30 min. After the H2O2 substrate solution was added and incubated at room temperature for 30 min, the ROS-Glo detection solution was added, and the mixture was incubated for 15 min. Luminescence was measured via iD5 microplate readers. The H2O2-decomposing activity was estimated via the following equation: (sample luminescence-blank luminescence)/(control luminescence-blank luminescence) × 100. The U/ml was calculated on the basis of the amount of H2O2 reduced by Hb during the reaction, using μg/ml and U/mg.

[2] = target: T1, Hb (Homo sapiens, UniProt P68871); assay: Bubbling liberation (oxygen release) with Hb; type: biochemical; details: Hb + H2O2, Fig. 2g
T1 construct: purchased Sigma-Aldrich H7379
T1 sequence (P68871 2-147 limits assumed): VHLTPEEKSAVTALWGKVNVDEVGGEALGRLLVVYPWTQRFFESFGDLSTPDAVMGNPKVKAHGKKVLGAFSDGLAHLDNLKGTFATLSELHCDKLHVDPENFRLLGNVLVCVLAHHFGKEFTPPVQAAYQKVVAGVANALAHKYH
T1 sequence (P69905 2-142 partner limits assumed): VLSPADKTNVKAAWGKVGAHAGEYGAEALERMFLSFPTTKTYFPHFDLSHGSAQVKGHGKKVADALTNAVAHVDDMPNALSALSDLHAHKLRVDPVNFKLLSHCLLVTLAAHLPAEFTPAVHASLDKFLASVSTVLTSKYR
Method: (§2) The effects of bubbling with DMSO, HTPEB, and KDS12025 were evaluated. To measure the degree of bubbling quantitatively, the reactions were conducted in sealed tubes connected to an inverted cylinder submerged in a water bath to record the time and volume of the bubbles produced. […] Vehicle, HTPEB, and KDS12025 were added to assess their effects. A similar procedure was followed for Hb.

[3] = test system: primary cultured hippocampal astrocytes; assay: DCFDA intracellular ROS assay; type: cell-based, mouse; details: for Aβ-induced ROS level (DCFDA), normalized to control: Aβ 5μM + compound 10μM, Fig. 3e; for relative ROS level (DCFDA): Aβ42+KDS12025 10 μM, Fig. 6c
Method: Primary hippocampal astrocytes were obtained from postnatal day 0‒2 (P0‒2) C57BL/6 mice as previously described.[73] The hippocampal tissue was dissected free of meninges, minced, and dissociated into a single-cell suspension by trituration. The cells were grown in Dulbecco’s modified Eagle’s medium supplemented with D-glucose (4500 mg/L), L-glutamine, sodium pyruvate (110 mg/L), 10% heat-inactivated horse serum, 10% heat-inactivated fetal bovine serum, and 1000 U/ml penicillin‒streptomycin. The cells were maintained at 37 °C in a humidified atmosphere containing 5% CO2.
The intracellular ROS levels of astrocytes were determined via 2′,7′- dichlorodihydrofluorescein diacetate (DCFDA; Thermo Fisher). Primary cultured hippocampal astrocytes were seeded into black 96-well plates (Ibidi) at a density of 5 × 10⁴ cells per well. The plates were incubated with oligomerized Aβ42 in the presence of KDS12008, KDS12017, KDS12025, HTPEB (10 µM each), and sodium pyruvate (1 mM). These cells were subsequently washed with Ca^2+ and Mg^2+-containing PBS, followed by the application of 30 µM DCFDA and incubation at 37 °C for 30 min in a dark incubator. The mean fluorescence intensity of each well was measured via iD5 microplate readers at 485 nm and 530 nm. The fluorescence values were calculated by subtracting the blank readings and normalizing them to those of the control group.

[4] = Solubility in aqueous solutions (statement); type: physicochemical
[5] = target: T2, HRP (Armoracia rusticana, UniProt P00433); assay: H2O2 assay with HRP (HRP-EC50); type: biochemical, horseradish; details: Tables S2, S3; read-out: HRP-EC50
T2 sequence (P00433 31-353): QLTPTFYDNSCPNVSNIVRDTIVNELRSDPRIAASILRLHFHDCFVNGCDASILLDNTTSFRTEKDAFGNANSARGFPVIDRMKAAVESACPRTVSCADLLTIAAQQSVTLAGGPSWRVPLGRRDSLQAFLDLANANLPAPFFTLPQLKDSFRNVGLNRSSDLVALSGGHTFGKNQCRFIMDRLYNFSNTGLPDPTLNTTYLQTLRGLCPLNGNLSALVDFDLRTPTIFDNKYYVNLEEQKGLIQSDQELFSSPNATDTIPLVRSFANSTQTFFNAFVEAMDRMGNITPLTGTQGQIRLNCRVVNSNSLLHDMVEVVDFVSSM
Method: as §1

[6] = target: T2, HRP; assay: Bubbling liberation (oxygen release) with HRP; type: biochemical, horseradish; details: HRP + H2O2, Fig. 2g
Method: as §2

[7] = test system: APP/PS1 mice; assay: Passive avoidance test, APP/PS1 mice; type: in vivo, mouse
Method: For an animal model of AD, both sexes of 10- to 18-month-old APP/PS1 mice were maintained and used as previously described.[76],[77] To test the effects of novel H2O2-decomposing enhancers in the AD model, the mice were treated by i.p. injection with KDS12008 (3 mg/kg/day), KDS12017 (3 mg/kg/day), or KDS12025 (3 or 10 mg/kg/day) once per day for 1 or 2 weeks, depending on the experimental protocol. All drugs were dissolved in 200 μl of saline, and the amount of each drug was calculated on the basis of the weight (kg) of the mouse. Moreover, KDS12025 (3 mg/kg/day) was orally administered to the AD model for 2 weeks ad libitum.
Sufficiently handled mice were ready before the PAT. The mice were placed in a two-compartment (light and dark) shuttle chamber with a shock generator (Ugo Basile, Italy). On the first day, the mice were placed in the light compartment for acquisition. The mice were allowed to explore the light compartment for 60 s, after which the door separating the light and dark compartments was raised to allow the mice to enter the dark compartment. When the mice entered the dark compartment, the separating door was closed immediately, and an electrical foot shock (0.5 mA, 2 s duration) was delivered through the floor grid. The mice were then moved back to the home cage, and the retention trial was conducted 24 h after the acquisition. On the second day, the mice were again placed in the light compartment for the retention trial. After 60 s, the door was raised to allow the mice to enter the dark compartment. The latency to step through the dark compartment before and after the electric shock was recorded for up to 540 s.

[8] = 3 mg/kg/day i.p., 16 times, Fig. S10b
[9] = APP+KDS12025 3 mg/kg/day ad libitum, Fig. 5m

What does the source list for `O=C(O)c1cc(NCCc2ccc(C(F)(F)F)cc2)ccc1O` [HTPEB, 2-hydroxy-5-[2-(4-trifluoromethyl-phenyl)-ethylamino]-benzoic acid, reference compound]?
H2O2-decomposing activity without HRP or Hb [1]: no activity; bubbles per 1 × 1 mm^2 area [2]: 12.5±3.969; Aβ-induced ROS level (DCFDA), normalized to control [3]: 112.0±8.321; solubility in water / aqueous solutions [4]: poor; EC50 [5]: 1520 nM; bubbles per 1 × 1 mm^2 area [6]: 9.0±1.0

With `CN(C)c1ccc(NCCc2ccc(C(F)(F)F)cc2)cc1.Cl` [KDS12008, N^1,N^1-dimethyl-N^4-(4-(trifluoromethyl)phenethyl)benzene-1,4-diamine hydrochloride salt] as the compound, how does the “PAT transfer latency, acquisition” value [7, 8] read?
Its value is 44.42±13.85.

What about the “PAT transfer latency, retrieval” value [7, 8] of the same compound?
Its value is 233.6±102.3.

And the “Aβ-induced ROS level (DCFDA), normalized to control” value [3]?
Its value is 96.78±7.989.

And the EC50 [5]?
Its EC50 is 795 nM.

With `CNc1ccc(NCCc2ccc(C(F)(F)F)cc2)cc1.Cl` [KDS12017, N^1-methyl-N^4-(4-(trifluoromethyl)phenethyl)benzene-1,4-diamine hydrochloride salt] as the compound, how does the “H2O2-decomposing activity without HRP or Hb” value [1] read?
The value was “neither KDS12017 nor KDS12025 degrades H2O2 without Hb”.

What about the “PAT transfer latency, acquisition” value [7, 8] of the same compound?
The value was 71.53±23.24.

And the “PAT transfer latency, retrieval” value [7, 8]?
The value was 305.6±137.5.

And the “Aβ-induced ROS level (DCFDA), normalized to control” value [3]?
Its value is 109.6±6.466.

And the EC50 [5]?
Its EC50 is 828 nM.

Which “H2O2-decomposing activity without HRP or Hb” value [1] does the source give for `CNc1ccc(NCCc2ccccc2OC)cc1.Cl` [KDS12025, N^1-(2-methoxyphenethyl)-N^4-methylbenzene-1,4-diamine hydrochloride salt] here?
Its value is “neither KDS12017 nor KDS12025 degrades H2O2 without Hb”.

What about the “bubbles per 1 × 1 mm^2 area” value [2] of the same compound?
Its value is 13.5±2.533.

And the “PAT transfer latency, acquisition” value [7, 8]?
Its value is 29.03±6.431.

What about the “PAT transfer latency, retrieval” value [7, 8] of the same compound?
Its value is 291.0±68.80.

And the “PAT transfer latency, acquisition” value ([7]; 3mpk i.p., 7 times, Fig. S10g)?
Its value is 36.47±13.39.

And the “PAT transfer latency, retrieval” value ([7]; 3mpk i.p., 7 times, Fig. S10g)?
The value was 341.7±71.16.

What about the “PAT transfer latency, acquisition” value ([7]; 10mpk i.p., 7 times, Fig. S10g) of the same compound?
The value was 66.00±15.30.

And the “PAT transfer latency, retrieval” value ([7]; 10mpk i.p., 7 times, Fig. S10g)?
The value was 508.8±49.93.

And the “PAT transfer latency, acquisition” value [7, 9]?
Its value is 21.17±3.843.

And the “PAT transfer latency, retrieval” value [7, 9]?
Its value is 254.3±56.96.

What about the “Aβ-induced ROS level (DCFDA), normalized to control” value [3] of the same compound?
Its value is 110.3±5.804.

And the “relative ROS level (DCFDA)” value ([3]; Hbβ-shRNA astrocytes)?
The value was 134.1±5.185.

And the “relative ROS level (DCFDA)” value ([3]; Sc-shRNA astrocytes)?
Its value is 105.8±2.173.

What about the “solubility in water / aqueous solutions” value [4] of the same compound?
Its value is “highly water soluble”.

And the EC50 [5]?
Its EC50 is 529 nM.

And the “bubbles per 1 × 1 mm^2 area” value [6]?
Its value is 7.3±0.947.
